The results in this text go back to publication PMC4457528, “Identification of Novel Small Molecule Inhibitors of Oncogenic RET Kinase” (PLoS ONE, 2015).

Read-outs that look alike come from different tables or passages of the source.

Assay in all cases: KinomeScan kinase panel, single concentration 10 µM
Common to all, as to assay type: binding

For assay [1], the target named is T1, KinomeScan kinase panel (Homo sapiens, UniProt P51955).
T1 construct: purchased DiscoveRx (KinomeScan)
T1 sequence (P51955 1-445): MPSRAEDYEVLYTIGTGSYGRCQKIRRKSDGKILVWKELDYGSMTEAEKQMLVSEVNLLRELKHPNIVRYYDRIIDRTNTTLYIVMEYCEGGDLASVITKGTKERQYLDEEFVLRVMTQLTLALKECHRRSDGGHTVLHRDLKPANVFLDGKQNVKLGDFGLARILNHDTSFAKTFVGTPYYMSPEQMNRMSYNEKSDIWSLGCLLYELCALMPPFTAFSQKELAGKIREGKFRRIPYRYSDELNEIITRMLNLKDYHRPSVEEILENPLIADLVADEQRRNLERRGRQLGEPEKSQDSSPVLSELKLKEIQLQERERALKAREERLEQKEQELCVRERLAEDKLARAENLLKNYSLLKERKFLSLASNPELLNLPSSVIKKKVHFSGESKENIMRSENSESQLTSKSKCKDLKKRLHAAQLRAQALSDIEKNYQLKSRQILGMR
As to conditions: NEK2, 10 µM; read-out: score (%).

Assay [2] concerns the target T2, KinomeScan kinase panel (Homo sapiens, UniProt P27361).
T2 construct: purchased DiscoveRx (KinomeScan)
Conditions: ERK1, 10 µM; read-out: score (%).

For assay [3], the target named is T3, KinomeScan kinase panel (Homo sapiens, UniProt P45983).
T3 construct: purchased DiscoveRx (KinomeScan)
T3 sequence (P45983 whole entry): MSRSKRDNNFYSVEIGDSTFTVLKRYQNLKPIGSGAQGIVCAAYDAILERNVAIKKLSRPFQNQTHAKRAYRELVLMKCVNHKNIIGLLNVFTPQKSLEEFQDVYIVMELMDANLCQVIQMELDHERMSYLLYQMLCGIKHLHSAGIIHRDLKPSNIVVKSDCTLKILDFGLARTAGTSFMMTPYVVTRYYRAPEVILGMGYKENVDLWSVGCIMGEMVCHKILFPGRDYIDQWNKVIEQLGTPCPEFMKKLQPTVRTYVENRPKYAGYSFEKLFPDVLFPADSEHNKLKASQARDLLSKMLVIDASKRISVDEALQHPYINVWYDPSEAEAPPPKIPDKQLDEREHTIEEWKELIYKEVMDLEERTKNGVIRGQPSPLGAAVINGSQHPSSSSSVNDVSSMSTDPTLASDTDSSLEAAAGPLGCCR
Conditions: JNK1, 10 µM.

Assay [4] concerns the target T4, KinomeScan kinase panel (Homo sapiens, UniProt Q96NX5).
T4 construct: purchased DiscoveRx (KinomeScan)
Conditions: CAMK1G, 10 µM; read-out: score (%).

For assay [5], the target named is T5, KinomeScan kinase panel (Homo sapiens, UniProt P54646).
T5 construct: purchased DiscoveRx (KinomeScan)
T5 sequence (P54646 whole entry): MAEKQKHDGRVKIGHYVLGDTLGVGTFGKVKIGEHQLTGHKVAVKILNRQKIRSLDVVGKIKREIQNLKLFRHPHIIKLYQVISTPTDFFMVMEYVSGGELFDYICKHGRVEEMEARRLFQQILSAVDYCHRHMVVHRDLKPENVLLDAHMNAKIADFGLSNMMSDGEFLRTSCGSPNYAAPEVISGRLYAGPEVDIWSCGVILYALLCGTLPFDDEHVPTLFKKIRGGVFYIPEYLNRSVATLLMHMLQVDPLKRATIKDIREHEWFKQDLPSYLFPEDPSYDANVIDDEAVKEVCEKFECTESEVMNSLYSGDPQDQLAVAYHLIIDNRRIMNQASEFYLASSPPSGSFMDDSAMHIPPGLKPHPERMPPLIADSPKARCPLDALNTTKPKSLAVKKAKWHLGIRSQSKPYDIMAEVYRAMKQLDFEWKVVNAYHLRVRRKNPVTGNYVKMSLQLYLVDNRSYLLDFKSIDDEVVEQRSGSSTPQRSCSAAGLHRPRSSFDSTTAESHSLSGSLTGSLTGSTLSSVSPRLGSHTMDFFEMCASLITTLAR
Conditions: AMPK-alpha2, 10 µM; read-out: score (%).

The target of assay [6] is T6, KinomeScan kinase panel (Homo sapiens, UniProt Q13164).
T6 construct: purchased DiscoveRx (KinomeScan)
T6 sequence (Q13164 whole entry): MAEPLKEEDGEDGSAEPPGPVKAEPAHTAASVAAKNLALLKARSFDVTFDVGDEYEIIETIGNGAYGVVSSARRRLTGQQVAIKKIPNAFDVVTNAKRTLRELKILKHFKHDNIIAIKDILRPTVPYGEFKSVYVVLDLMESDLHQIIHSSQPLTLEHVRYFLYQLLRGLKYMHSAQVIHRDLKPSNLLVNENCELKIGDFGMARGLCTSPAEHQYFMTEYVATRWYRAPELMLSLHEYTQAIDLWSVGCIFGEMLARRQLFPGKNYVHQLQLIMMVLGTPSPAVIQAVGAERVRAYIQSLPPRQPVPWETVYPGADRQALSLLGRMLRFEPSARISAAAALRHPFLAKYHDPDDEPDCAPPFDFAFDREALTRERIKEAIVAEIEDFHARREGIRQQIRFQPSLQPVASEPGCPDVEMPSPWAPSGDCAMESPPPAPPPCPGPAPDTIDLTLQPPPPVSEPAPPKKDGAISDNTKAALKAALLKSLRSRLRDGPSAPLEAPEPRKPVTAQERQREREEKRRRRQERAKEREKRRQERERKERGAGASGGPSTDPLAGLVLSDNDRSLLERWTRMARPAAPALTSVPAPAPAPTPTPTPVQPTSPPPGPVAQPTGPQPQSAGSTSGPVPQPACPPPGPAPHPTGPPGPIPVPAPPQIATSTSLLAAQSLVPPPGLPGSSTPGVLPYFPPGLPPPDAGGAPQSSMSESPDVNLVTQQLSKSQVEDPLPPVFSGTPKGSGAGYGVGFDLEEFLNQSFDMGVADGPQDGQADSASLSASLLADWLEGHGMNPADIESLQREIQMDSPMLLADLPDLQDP
As to conditions: ERK5, 10 µM; read-out: score (%).

The target of assay [7] is T7, KinomeScan kinase panel (Homo sapiens, UniProt Q9NYL2).
T7 construct: purchased DiscoveRx (KinomeScan)
As to conditions: kinase ZAK; 10 µM; read-out: score (%).

The target of assay [8] is T8, KinomeScan kinase panel (Homo sapiens, UniProt Q9Y6E0).
T8 construct: purchased DiscoveRx (KinomeScan)
T8 sequence (Q9Y6E0 whole entry): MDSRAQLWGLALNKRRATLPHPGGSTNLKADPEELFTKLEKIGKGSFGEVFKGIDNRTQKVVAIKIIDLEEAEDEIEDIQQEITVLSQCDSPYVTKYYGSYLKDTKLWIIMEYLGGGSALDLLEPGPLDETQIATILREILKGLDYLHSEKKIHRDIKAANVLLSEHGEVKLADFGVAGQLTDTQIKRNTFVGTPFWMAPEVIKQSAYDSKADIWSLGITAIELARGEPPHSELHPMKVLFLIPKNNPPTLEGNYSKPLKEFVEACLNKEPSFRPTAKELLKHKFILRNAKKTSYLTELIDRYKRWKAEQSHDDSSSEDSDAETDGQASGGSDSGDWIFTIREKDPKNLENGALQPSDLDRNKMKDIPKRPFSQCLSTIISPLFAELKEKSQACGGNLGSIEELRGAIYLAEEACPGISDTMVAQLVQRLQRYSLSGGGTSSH
As to conditions: MST3, 10 µM.

The target of assay [9] is T9, KinomeScan kinase panel (Homo sapiens, UniProt Q06418).
T9 construct: purchased DiscoveRx (KinomeScan)
T9 sequence (Q06418 41-890): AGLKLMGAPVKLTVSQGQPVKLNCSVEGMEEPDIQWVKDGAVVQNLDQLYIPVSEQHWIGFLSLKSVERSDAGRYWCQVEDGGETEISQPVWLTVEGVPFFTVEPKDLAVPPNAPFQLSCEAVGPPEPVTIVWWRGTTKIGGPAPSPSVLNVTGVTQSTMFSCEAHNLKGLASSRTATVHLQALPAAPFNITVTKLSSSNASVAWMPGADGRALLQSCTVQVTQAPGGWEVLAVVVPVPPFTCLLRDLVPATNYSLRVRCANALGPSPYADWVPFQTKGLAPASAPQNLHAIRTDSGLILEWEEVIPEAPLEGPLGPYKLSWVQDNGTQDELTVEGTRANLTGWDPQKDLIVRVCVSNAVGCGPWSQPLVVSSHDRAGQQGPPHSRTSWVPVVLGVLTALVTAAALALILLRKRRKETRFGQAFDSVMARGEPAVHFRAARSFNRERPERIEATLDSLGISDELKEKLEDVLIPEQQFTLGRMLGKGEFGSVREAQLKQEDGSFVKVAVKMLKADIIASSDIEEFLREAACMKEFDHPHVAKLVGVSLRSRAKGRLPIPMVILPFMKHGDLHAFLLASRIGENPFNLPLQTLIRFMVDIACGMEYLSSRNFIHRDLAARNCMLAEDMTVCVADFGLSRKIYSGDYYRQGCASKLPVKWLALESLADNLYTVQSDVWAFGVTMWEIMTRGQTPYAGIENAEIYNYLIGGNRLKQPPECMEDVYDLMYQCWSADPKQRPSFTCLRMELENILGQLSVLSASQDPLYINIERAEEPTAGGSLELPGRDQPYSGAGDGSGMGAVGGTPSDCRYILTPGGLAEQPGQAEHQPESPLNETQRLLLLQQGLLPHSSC
Conditions: kinase TYRO3; 10 µM; read-out: score (%).

In assay [10] the target is T10, KinomeScan kinase panel (Homo sapiens, UniProt Q8N4C8).
T10 construct: purchased DiscoveRx (KinomeScan)
T10 sequence (Q8N4C8 whole entry): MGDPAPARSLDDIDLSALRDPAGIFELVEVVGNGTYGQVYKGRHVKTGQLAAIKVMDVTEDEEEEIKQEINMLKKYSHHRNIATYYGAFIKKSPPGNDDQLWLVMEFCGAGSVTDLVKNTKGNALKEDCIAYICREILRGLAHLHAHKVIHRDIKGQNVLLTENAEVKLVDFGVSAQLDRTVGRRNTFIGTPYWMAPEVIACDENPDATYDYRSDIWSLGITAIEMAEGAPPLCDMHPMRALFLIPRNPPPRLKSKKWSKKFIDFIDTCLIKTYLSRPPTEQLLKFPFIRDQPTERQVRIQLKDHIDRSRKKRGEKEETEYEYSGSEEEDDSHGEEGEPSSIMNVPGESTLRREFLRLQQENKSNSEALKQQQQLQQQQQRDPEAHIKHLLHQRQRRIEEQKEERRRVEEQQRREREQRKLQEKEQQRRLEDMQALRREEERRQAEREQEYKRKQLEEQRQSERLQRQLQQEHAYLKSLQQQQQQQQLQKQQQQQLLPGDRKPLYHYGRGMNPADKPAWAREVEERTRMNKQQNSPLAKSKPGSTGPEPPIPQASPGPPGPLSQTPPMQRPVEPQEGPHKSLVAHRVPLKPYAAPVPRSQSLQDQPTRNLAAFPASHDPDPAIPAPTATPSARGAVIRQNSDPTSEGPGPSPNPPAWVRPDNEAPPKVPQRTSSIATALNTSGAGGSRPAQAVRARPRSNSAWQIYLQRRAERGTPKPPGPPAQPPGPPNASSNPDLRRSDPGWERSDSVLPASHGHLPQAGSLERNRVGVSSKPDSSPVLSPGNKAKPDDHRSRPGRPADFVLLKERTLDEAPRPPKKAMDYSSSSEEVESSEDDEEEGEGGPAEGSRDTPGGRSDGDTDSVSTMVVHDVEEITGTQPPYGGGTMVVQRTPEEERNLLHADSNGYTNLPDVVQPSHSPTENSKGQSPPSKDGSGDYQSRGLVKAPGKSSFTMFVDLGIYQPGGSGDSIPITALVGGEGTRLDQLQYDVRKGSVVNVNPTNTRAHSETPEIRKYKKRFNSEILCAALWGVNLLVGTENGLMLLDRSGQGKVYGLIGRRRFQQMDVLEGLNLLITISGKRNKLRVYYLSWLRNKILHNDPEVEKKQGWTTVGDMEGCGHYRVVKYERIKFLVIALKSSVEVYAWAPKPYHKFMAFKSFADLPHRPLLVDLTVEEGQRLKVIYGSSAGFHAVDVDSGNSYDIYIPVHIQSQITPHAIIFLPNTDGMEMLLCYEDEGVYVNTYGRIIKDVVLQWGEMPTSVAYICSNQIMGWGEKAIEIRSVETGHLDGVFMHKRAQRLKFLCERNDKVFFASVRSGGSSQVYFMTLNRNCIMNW
As to conditions: MINK, 10 µM; read-out: score (%).

Assay [11] addresses T11, KinomeScan kinase panel (Homo sapiens, UniProt Q04759).
T11 construct: purchased DiscoveRx (KinomeScan)
As to conditions: 10 µM, read-out: score (%).

In assay [12] the target is T12, KinomeScan kinase panel (Homo sapiens, UniProt Q9HC98).
T12 construct: purchased DiscoveRx (KinomeScan)
T12 sequence (Q9HC98 whole entry): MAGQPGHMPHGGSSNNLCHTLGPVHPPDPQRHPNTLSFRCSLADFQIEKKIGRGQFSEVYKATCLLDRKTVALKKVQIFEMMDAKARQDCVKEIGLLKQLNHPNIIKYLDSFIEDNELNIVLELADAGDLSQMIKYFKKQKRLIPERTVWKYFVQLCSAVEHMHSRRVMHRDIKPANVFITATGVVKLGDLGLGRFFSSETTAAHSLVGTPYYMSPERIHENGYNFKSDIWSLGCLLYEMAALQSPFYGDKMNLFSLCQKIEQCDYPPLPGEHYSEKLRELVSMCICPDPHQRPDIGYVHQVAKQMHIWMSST
Conditions: NEK6, 10 µM; read-out: score (%).

Assay [13] has as its target T13, KinomeScan kinase panel (Homo sapiens, UniProt Q02156).
T13 construct: purchased DiscoveRx (KinomeScan)
T13 sequence (Q02156 1-737): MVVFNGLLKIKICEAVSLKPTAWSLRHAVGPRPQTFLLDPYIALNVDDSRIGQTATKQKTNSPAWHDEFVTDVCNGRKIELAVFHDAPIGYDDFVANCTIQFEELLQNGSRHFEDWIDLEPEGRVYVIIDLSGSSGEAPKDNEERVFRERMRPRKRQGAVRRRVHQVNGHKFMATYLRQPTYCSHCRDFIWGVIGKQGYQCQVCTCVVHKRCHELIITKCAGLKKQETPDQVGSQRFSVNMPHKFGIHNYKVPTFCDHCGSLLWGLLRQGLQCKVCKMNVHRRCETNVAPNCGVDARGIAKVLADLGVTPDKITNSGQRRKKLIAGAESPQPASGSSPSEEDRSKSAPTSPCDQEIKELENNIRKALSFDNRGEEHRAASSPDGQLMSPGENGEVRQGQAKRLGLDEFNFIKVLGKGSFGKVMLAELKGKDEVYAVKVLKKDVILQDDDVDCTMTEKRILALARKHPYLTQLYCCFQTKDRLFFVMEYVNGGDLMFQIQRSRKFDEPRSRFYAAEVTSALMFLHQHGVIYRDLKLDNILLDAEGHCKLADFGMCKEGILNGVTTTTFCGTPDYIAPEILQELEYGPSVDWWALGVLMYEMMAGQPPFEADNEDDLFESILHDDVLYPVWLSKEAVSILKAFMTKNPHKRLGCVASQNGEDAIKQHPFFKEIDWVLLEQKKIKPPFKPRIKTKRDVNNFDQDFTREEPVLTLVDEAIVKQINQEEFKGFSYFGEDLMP
Conditions: 10 µM, read-out: score (%).

T4 sequence (Q96NX5 whole entry): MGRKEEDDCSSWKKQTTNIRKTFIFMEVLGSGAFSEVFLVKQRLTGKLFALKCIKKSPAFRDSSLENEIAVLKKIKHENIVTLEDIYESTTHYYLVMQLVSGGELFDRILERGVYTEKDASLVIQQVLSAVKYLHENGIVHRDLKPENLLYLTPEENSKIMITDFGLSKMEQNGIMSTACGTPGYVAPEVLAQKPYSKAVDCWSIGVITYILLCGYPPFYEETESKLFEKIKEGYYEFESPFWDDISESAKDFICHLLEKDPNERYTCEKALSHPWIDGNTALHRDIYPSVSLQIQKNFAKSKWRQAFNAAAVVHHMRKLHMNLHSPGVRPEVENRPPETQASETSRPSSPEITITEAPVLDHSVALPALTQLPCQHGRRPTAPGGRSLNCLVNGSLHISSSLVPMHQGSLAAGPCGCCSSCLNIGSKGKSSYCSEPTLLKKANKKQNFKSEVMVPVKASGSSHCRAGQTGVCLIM
T2 sequence (P27361 whole entry): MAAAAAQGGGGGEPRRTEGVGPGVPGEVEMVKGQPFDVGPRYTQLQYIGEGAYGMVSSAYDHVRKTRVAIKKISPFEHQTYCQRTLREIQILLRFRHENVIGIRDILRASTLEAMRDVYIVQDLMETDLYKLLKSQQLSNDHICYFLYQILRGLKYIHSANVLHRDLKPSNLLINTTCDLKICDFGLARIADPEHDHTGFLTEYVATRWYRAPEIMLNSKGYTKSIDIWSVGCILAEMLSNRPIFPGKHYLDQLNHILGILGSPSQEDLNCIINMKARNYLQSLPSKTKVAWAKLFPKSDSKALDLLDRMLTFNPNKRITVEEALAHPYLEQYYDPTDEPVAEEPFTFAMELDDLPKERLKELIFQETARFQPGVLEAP

Consider `CCN1CCN(Cc2ccc(NC(=O)c3ccc(C)c(NC(=O)c4cncc(-c5cccs5)c4)c3)cc2C(F)(F)F)CC1` [ALW-II-41-27], for which the remaining binding at 10 µM on KinomeScan kinase panel [1] was over 30%; at KinomeScan kinase panel [2] it was over 30%; on KinomeScan kinase panel [4], over 30%; at KinomeScan kinase panel [5], over 30%; on KinomeScan kinase panel [6], over 30%; on KinomeScan kinase panel [7], 3%. Further, the remaining binding at 10 µM was over 30% on KinomeScan kinase panel [9]; 0.65% at KinomeScan kinase panel [10]; 22% at KinomeScan kinase panel [11] (PRKCQ); over 30% on KinomeScan kinase panel [12]; 5% on KinomeScan kinase panel [13] (PRKCE). Moreover, the “score (%)” value on KinomeScan kinase panel [3] and on KinomeScan kinase panel [8] was “nb (Hits values higher than 30% were considered negative (no binding: nb))” each time.

Consider `CCN1CCN(Cc2ccc(NC(=O)c3ccc(C)c(/C=C/c4cnc5[nH]ccc5c4Cl)c3)cc2C(F)(F)F)CC1` [HG-6-63-01, (E)-3-(2-(4-chloro-1H-pyrrolo[2,3-b]pyridin-5-yl)vinyl)-N-(4-((4-ethylpiperazin-1-yl)methyl)-3-(trifluoromethyl)phenyl)-4-methylbenzamide], for which the remaining binding at 10 µM on KinomeScan kinase panel [1] was over 30%; at KinomeScan kinase panel [2] it was over 30%; at KinomeScan kinase panel [4], over 30%; on KinomeScan kinase panel [5] it was over 30%; on KinomeScan kinase panel [6], over 30%; on KinomeScan kinase panel [7], 0.35%. Besides, the remaining binding at 10 µM at KinomeScan kinase panel [9] is over 30%; at KinomeScan kinase panel [10] it was 4.2%; on KinomeScan kinase panel [11] (PRKCQ) it was over 30%; at KinomeScan kinase panel [12], over 30%; at KinomeScan kinase panel [13] (PRKCE) it was over 30%. For the same molecule, the “score (%)” value at KinomeScan kinase panel [3] is given as 6.6%; at KinomeScan kinase panel [8], “nb (Hits values higher than 30% were considered negative (no binding: nb))”.

Consider `CCN1CCN(Cc2ccc(NC(=O)c3ccc(C)c(C#Cc4cccnc4)c3)cc2C(F)(F)F)CC1` [XMD15-44], for which the remaining binding at 10 µM at KinomeScan kinase panel [1] is over 30%; on KinomeScan kinase panel [2] it was over 30%; at KinomeScan kinase panel [4] it was over 30%; on KinomeScan kinase panel [5] it was 18%; at KinomeScan kinase panel [6], over 30%; on KinomeScan kinase panel [7], 0.4%. The remaining binding at 10 µM at KinomeScan kinase panel [9] came out at 100%; at KinomeScan kinase panel [10], 2.5%; at KinomeScan kinase panel [11] (kinase PRKCQ), 55%; on KinomeScan kinase panel [12], 90%; on KinomeScan kinase panel [13] (kinase PRKCE) it was 54%. Further, the results for the “score (%)” value at KinomeScan kinase panel [3] and on KinomeScan kinase panel [8] were 0.55% and 2.8%, respectively.
